Results: the supplement of paper PMC10307832

How the values were obtained:
Assay in all cases: relative viability (nuclei count vs DMSO), 5 days (fraction); higher = more cells survive
Omipalisib = compound: COc1ncc(-c2ccc3nccc(-c4ccnnc4)c3c2)cc1NS(=O)(=O)c1ccc(F)cc1F [Omipalisib]
In short: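 Lung cancer cell lines were seeded into 1536-well plates, kept overnight at 37 °C and pinned with five library-drug doses (not always all listed) spaced by √10. After 5 days, nuclei were Hoechst-stained, imaged at 4× and counted with MetaXpress. Viability is treated-well nuclei over vehicle-well nuclei, taken as a median across plates. Plates needed control CV below 25% and at least one doubling.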

Omipalisib + Trametinib = compound: COc1ncc(-c2ccc3nccc(-c4ccnnc4)c3c2)cc1NS(=O)(=O)c1ccc(F)cc1F [Omipalisib] + CC(=O)Nc1cccc(-n2c(=O)n(C3CC3)c(=O)c3c(Nc4ccc(I)cc4F)n(C)c(=O)c(C)c32)c1 [Trametinib] (partner 0.02 µM)
In short: (§1)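 Relative viability divides the nuclei count in treated wells by that in vehicle wells. Lung cancer cell lines were seeded in 1536-well plates, dosed by pin tool the next day, and fixed and stained after 5 days in one step with final 0.05% Triton X-100, 1% formaldehyde and 1 ug/ml Hoechst. Dosing was a single drug or a fixed anchor-drug dose plus five library-drug doses (not always all listed) in √10 steps, and values are medians of duplicate plates imaged at 4×.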

Omipalisib + Bortezomib = compound: COc1ncc(-c2ccc3nccc(-c4ccnnc4)c3c2)cc1NS(=O)(=O)c1ccc(F)cc1F [Omipalisib] + CC(C)C[C@H](NC(=O)[C@H](Cc1ccccc1)NC(=O)c1cnccn1)B(O)O [Bortezomib] (partner 0.002 µM)
In short: as §1

Omipalisib + Phenformin = compound: COc1ncc(-c2ccc3nccc(-c4ccnnc4)c3c2)cc1NS(=O)(=O)c1ccc(F)cc1F [Omipalisib] + N=C(N)NC(=N)NCCc1ccccc1 [Phenformin] (partner 250 µM)
In short: as §1

Omipalisib + Decitabine = compound: COc1ncc(-c2ccc3nccc(-c4ccnnc4)c3c2)cc1NS(=O)(=O)c1ccc(F)cc1F [Omipalisib] + Nc1ncn([C@H]2C[C@H](O)[C@@H](CO)O2)c(=O)n1 [Decitabine] (partner 2 µM)
In short: as §1

Omipalisib + Vorinostat = compound: COc1ncc(-c2ccc3nccc(-c4ccnnc4)c3c2)cc1NS(=O)(=O)c1ccc(F)cc1F [Omipalisib] + O=C(CCCCCCC(=O)Nc1ccccc1)NO [Vorinostat] (partner 1 µM)
In short: as §1

Row | Cell Line | relative viability (Omipalisib; 0.0003 µM) | relative viability (Omipalisib; 0.003 µM) | relative viability (Omipalisib; 0.03 µM) | relative viability (Omipalisib + Trametinib; first compound 0.0003 µM) | relative viability (Omipalisib + Trametinib; first compound 0.003 µM) | relative viability (Omipalisib + Trametinib; first compound 0.03 µM) | relative viability (Omipalisib + Bortezomib; first compound 0.0003 µM) | relative viability (Omipalisib + Bortezomib; first compound 0.003 µM) | relative viability (Omipalisib + Bortezomib; first compound 0.03 µM) | relative viability (Omipalisib + Phenformin; first compound 0.0003 µM) | relative viability (Omipalisib + Phenformin; first compound 0.003 µM) | relative viability (Omipalisib + Phenformin; first compound 0.03 µM) | relative viability (Omipalisib + Decitabine; first compound 0.0003 µM) | relative viability (Omipalisib + Decitabine; first compound 0.003 µM) | relative viability (Omipalisib + Decitabine; first compound 0.03 µM) | relative viability (Omipalisib + Vorinostat; first compound 0.0003 µM) | relative viability (Omipalisib + Vorinostat; first compound 0.003 µM) | relative viability (Omipalisib + Vorinostat; first compound 0.03 µM)
1 | PC-14 | 1.05 | 1.05 | 0.795 | 0.807 | 0.682 | 0.243 | 0.822 | 0.991 | 0.646 | 0.537 | 0.639 | 0.368 | 0.19 | 0.248 | 0.222 | 0.683 | 0.527 | 0.373
2 | NCI-H647 | 0.949 | 0.696 | 0.42 | 0.341 | 0.278 | 0.15 | 1.05 | 0.739 | 0.462 | 0.402 | 0.267 | 0.185 | 0.34 | 0.248 | 0.378 | 0.304 | 0.368 | 0.295
3 | LCLC-103H | 1.04 | 0.745 | 0.617 | 0.602 | 0.524 | 0.401 | 0.943 | 0.891 | 0.732 | 0.319 | 0.29 | 0.174 | 0.69 | 0.639 | 0.4 | 0.848 | 0.554 | 0.43
4 | NCI-H2228 | 0.858 | 0.682 | 0.352 | 0.505 | 0.187 | 0.173 | 0.905 | 0.577 | 0.404 | 0.258 | 0.142 | 0.122 | – | – | – | 0.75 | 0.498 | 0.162
5 | NCI-H2085 | 0.987 | 1.01 | 0.495 | 0.456 | 0.255 | 0.257 | 0.953 | 0.98 | 0.517 | 0.869 | 0.429 | 0.303 | 0.524 | 0.507 | 0.348 | 0.815 | 0.701 | 0.436
6 | H3255 | 0.93 | 0.85 | 0.51 | 0.56 | 0.421 | 0.277 | 0.803 | 0.588 | 0.571 | 0.365 | 0.39 | 0.269 | 0.534 | 0.471 | 0.305 | 0.811 | 0.623 | 0.269
7 | LK-2 | 0.767 | 0.435 | 0.345 | 0.595 | 0.4 | 0.201 | – | – | – | 0.532 | 0.128 | 0.144 | 0.235 | 0.201 | 0.147 | 0.276 | 0.18 | 0.154
8 | NCI-H441 | 0.832 | 0.574 | 0.427 | 0.474 | 0.232 | 0.184 | 0.418 | 0.362 | 0.259 | 0.703 | 0.659 | 0.318 | 0.24 | 0.206 | 0.227 | 0.783 | 0.526 | 0.399
9 | SW 900 | 0.886 | 0.768 | 0.591 | 0.625 | 0.915 | 0.396 | – | – | – | 0.513 | 0.321 | 0.424 | 0.386 | 0.344 | 0.392 | 0.523 | 0.484 | 0.316
10 | PC-3 [JPC-3] | 1.01 | 1.07 | 0.912 | 0.738 | 0.664 | 0.439 | 0.788 | 0.888 | 0.909 | 0.475 | 0.477 | 0.414 | 0.776 | 0.816 | 0.627 | 0.889 | 0.821 | 0.613
11 | NCI-H2342 | 0.741 | 0.63 | 0.534 | 0.732 | 0.583 | 0.449 | – | – | – | 0.56 | 0.482 | 0.424 | 0.589 | 0.479 | 0.408 | 0.678 | 0.536 | 0.499
12 | NCI-H1437 | 1 | 0.837 | 0.398 | 0.583 | 0.31 | 0.209 | 0.463 | 0.465 | 0.227 | 0.334 | 0.249 | 0.333 | 0.519 | 0.564 | 0.398 | 0.948 | 0.75 | 0.448
13 | HCC-827 | 1.04 | 1.04 | 0.666 | 0.472 | 0.37 | 0.202 | 1.06 | 1.17 | 0.828 | 0.402 | 0.343 | 0.271 | 0.298 | 0.244 | 0.239 | 0.864 | 0.682 | 0.438
14 | HCC-44 | 1.01 | 0.953 | 0.416 | 0.983 | 0.921 | 0.468 | 0.874 | 0.694 | 0.513 | 0.202 | 0.141 | 0.102 | 0.95 | 0.914 | 0.787 | 1.12 | 1.18 | 0.559
15 | NCI-H2126 | 0.972 | 0.687 | 0.495 | 0.487 | 0.397 | 0.327 | 1.06 | 0.895 | 0.734 | 0.489 | 0.425 | 0.292 | 0.548 | 0.414 | 0.304 | 0.718 | 0.442 | 0.348
16 | NCI-H596 | 0.944 | 0.673 | 0.421 | 0.899 | 0.494 | 0.299 | 1.04 | 0.691 | 0.386 | 0.692 | 0.445 | 0.387 | 0.846 | 0.75 | 0.506 | 0.581 | 0.364 | 0.447
17 | NCI-H460 | 1 | 0.787 | 0.334 | 0.0973 | 0.0781 | 0.0544 | 1.07 | 0.824 | 0.109 | 0.461 | 0.24 | 0.0524 | 0.41 | 0.286 | 0.247 | 0.653 | 0.617 | 0.0977
